Laboratory results taken from patent US8404258B2, “External preparation for the skin” (Shiseido Company, Ltd., priority 2001, dated 2013).

Tested on: healthy volunteers (bent side of the forearm)
Assay: 24 hour-occlusion patch test (Finn Chamber) of the original specimen
Assay type: in vivo, human
Details: 46 persons, 0.03 ml original specimen
Protocol: “Test Method Using Patch Test”
The test was conducted using a Finn Chamber (8 mm in diameter) with 24 hour-occlusion.
Test subjects were 46 male and female healthy volunteers (33 males and 13 females) whose ages range from 22 to 59 (average 42); 0.03 ml of the original specimen of alkylene polyglycol dineopentanoate was applied on the bent side of the forearm of the test subjects for 24 hours. The application site was secured with an elastic bandage; three hours after the removal of the bandage and the adhesive plaster the first evaluation (after-24-hours evaluation) was conducted according to the evaluation criteria of Table 1, and 24 hours later another evaluation (after-48-hours evaluation) was conducted with the same criteria.

Compound	Equivocal ± (mild erythema), number of subjects (evaluation time 24 hrs)	Negative − (no reaction), number of subjects (evaluation time 24 hrs)	Positive + (Weakly positive: erythema), number of subjects (evaluation time 24 hrs)	Positive ++ (Moderately positive: erythema + edema), number of subjects (evaluation time 24 hrs)	Positive +++ (Strongly positive), number of subjects (evaluation time 24 hrs)	Positive ++++ (Strongest positive: large blister), number of subjects (evaluation time 24 hrs)	Positive ratio (evaluation time 24 hrs) [%]	Equivocal ± (mild erythema), number of subjects (evaluation time 48 hrs)	Negative − (no reaction), number of subjects (evaluation time 48 hrs)	Positive + (Weakly positive: erythema), number of subjects (evaluation time 48 hrs)	Positive ++ (Moderately positive: erythema + edema), number of subjects (evaluation time 48 hrs)	Positive +++ (Strongly positive), number of subjects (evaluation time 48 hrs)	Positive ++++ (Strongest positive: large blister), number of subjects (evaluation time 48 hrs)	Positive ratio (evaluation time 48 hrs) [%]
CC(COC(=O)C(C)(C)C)OCC(C)OCC(C)OC(=O)C(C)(C)C (stereo not shown) [Example 1, Tripropyleneglycol dineopentanoate]	0	46	0	0	0	0	0	0	46	0	0	0	0	0
CC(COC(=O)C(C)(C)C)OCC(C)OC(=O)C(C)(C)C (stereo not shown) [Example 2, Dipropyleneglycol dineopentanoate]	0	46	0	0	0	0	0	0	46	0	0	0	0	0
CC(COC(=O)C(C)(C)C)OCC(C)OCC(C)OCC(C)OC(=O)C(C)(C)C (stereo not shown) [Example 3, Tetrapropyleneglycol dineopentanoate]	0	46	0	0	0	0	0	0	46	0	0	0	0	0

The remaining lines, values ahead:

Equivocal ± (mild erythema), number of subjects (evaluation time 24 hrs)	Negative − (no reaction), number of subjects (evaluation time 24 hrs)	Positive + (Weakly positive: erythema), number of subjects (evaluation time 24 hrs)	Positive ++ (Moderately positive: erythema + edema), number of subjects (evaluation time 24 hrs)	Positive +++ (Strongly positive), number of subjects (evaluation time 24 hrs)	Positive ++++ (Strongest positive: large blister), number of subjects (evaluation time 24 hrs)	Positive ratio (evaluation time 24 hrs) [%]	Equivocal ± (mild erythema), number of subjects (evaluation time 48 hrs)	Negative − (no reaction), number of subjects (evaluation time 48 hrs)	Positive + (Weakly positive: erythema), number of subjects (evaluation time 48 hrs)	Positive ++ (Moderately positive: erythema + edema), number of subjects (evaluation time 48 hrs)	Positive +++ (Strongly positive), number of subjects (evaluation time 48 hrs)	Positive ++++ (Strongest positive: large blister), number of subjects (evaluation time 48 hrs)	Positive ratio (evaluation time 48 hrs) [%]	Compound
5	31	5	4	1	0	22	5	32	4	5	0	0	20	CCCCCCCCC(=O)OCCCCCCC(C)C [compound 3, Isononyl nonanoate, reference compound]
3	39	2	2	0	0	8.7	2	40	4	0	0	0	8.7	Isocetyl oleate [compound 1, reference compound]
